From ChEMBL document CHEMBL1201862, “PubChem BioAssay data set” (2004)
Activity calls are given as the source filed them. For most assays here, no stated cut-off is given here; in the data, active = EC50 of 10 µM or less and inactive = more.

Tests used:
[1] = molecular target: Mucolipin-3 (Homo sapiens, UniProt Q8TDD5); experiment: Dose response cell-based high-throughput screening assay for agonists of the transient receptor potential channel ML3 (TRPML3). [Related pubchem assays: 1526, 1424, 1448 ]; format: functional
Sequence of Mucolipin-3 (Q8TDD5 whole entry): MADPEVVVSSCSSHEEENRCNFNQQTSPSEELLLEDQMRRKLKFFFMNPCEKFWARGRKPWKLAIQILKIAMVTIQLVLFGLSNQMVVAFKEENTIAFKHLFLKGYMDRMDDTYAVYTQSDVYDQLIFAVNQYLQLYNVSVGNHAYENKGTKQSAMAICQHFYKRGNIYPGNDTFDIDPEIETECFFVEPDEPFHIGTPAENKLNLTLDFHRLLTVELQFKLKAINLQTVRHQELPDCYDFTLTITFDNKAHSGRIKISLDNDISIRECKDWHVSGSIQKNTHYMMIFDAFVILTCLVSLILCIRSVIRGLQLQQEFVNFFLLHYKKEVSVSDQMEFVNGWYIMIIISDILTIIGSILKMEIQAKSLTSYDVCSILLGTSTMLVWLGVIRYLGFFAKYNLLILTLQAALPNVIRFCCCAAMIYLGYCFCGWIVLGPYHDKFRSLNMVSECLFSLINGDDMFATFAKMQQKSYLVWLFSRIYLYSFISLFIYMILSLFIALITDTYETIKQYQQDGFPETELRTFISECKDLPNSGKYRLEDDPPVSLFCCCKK

[2] = molecular target: Ion channel NompC (Danio rerio, UniProt Q7T1G6); experiment: Fluorescence counterscreen assay for TRPML3 agonists: dose response cell-based high-throughput screening assay to identify agonists of the transient receptor potential channel N1 (TRPN1). [Related pubchem assays: 1526, 1424, 1448 ]; format: functional
Sequence of Ion channel NompC (Q7T1G6 whole entry): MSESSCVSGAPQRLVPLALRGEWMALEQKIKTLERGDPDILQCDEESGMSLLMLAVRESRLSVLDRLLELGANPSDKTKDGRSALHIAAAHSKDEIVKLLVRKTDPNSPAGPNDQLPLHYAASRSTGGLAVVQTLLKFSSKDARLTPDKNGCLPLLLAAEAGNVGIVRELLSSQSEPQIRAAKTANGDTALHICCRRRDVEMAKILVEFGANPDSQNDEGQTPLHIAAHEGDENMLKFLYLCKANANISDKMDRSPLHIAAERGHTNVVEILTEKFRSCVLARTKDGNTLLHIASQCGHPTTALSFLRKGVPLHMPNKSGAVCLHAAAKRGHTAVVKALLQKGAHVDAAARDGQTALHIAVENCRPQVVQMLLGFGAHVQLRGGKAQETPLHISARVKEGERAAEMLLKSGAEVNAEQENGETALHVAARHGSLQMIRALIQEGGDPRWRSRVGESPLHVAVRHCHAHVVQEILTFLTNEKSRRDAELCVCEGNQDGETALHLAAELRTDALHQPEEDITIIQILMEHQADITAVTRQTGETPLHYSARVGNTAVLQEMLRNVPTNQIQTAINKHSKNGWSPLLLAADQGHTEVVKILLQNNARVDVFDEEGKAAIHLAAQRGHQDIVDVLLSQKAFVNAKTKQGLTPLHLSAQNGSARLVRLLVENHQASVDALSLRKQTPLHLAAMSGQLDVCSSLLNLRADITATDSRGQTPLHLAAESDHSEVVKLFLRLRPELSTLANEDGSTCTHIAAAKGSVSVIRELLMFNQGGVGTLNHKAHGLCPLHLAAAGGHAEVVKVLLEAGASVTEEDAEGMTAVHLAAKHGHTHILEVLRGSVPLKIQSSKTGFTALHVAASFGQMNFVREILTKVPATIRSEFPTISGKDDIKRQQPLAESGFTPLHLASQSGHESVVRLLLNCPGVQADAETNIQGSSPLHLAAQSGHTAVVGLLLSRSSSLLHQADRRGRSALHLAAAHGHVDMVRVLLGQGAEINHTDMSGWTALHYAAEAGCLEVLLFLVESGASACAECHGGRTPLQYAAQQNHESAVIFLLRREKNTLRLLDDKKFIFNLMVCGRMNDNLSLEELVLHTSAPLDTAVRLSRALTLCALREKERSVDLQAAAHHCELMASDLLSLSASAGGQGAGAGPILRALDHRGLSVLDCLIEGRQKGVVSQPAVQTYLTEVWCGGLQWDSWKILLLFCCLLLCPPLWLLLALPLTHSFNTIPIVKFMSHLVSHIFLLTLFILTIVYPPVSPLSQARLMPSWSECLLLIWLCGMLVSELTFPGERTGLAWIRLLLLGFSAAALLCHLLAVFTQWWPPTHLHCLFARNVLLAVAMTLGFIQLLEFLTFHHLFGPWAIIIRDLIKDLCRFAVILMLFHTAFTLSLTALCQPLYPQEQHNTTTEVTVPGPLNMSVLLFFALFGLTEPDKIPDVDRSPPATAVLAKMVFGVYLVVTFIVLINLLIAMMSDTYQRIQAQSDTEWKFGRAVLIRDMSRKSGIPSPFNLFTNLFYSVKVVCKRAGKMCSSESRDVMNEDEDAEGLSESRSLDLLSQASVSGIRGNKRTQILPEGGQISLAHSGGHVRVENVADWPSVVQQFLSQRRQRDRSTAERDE

[3] = Counterscreen for IDE inhibitors: Luminescence-based cell-based high throughput dose response assay to identify compounds that are cytotoxic to HEK cells. [Related pubchem assays: 434962 (Primary screen (IDE inhibitors in singlicate)), 449730 (Counterscreen (Cytotoxicity in triplicate)), 435028 (Confirmation (IDE inhibitors in triplicate)) …; format: functional; conditions: HEK293
[4] = molecular target: T1, Insulin-degrading enzyme (Homo sapiens, UniProt P14735); experiment: Dose Response: Fluorescence polarization-based cell-based high throughput dose response assay for inhibitors of insulin-degrading enzyme (IDE). [Related pubchem assays: 434962 (Primary screen (IDE inhibitors in singlicate)), 449730 (Counterscreen (Cytotoxicity in triplicate)), 435028 (Confirmation (IDE inhibitors in triplicate)), 434984 (Summary …; format: functional
T1 sequence (P14735 whole entry): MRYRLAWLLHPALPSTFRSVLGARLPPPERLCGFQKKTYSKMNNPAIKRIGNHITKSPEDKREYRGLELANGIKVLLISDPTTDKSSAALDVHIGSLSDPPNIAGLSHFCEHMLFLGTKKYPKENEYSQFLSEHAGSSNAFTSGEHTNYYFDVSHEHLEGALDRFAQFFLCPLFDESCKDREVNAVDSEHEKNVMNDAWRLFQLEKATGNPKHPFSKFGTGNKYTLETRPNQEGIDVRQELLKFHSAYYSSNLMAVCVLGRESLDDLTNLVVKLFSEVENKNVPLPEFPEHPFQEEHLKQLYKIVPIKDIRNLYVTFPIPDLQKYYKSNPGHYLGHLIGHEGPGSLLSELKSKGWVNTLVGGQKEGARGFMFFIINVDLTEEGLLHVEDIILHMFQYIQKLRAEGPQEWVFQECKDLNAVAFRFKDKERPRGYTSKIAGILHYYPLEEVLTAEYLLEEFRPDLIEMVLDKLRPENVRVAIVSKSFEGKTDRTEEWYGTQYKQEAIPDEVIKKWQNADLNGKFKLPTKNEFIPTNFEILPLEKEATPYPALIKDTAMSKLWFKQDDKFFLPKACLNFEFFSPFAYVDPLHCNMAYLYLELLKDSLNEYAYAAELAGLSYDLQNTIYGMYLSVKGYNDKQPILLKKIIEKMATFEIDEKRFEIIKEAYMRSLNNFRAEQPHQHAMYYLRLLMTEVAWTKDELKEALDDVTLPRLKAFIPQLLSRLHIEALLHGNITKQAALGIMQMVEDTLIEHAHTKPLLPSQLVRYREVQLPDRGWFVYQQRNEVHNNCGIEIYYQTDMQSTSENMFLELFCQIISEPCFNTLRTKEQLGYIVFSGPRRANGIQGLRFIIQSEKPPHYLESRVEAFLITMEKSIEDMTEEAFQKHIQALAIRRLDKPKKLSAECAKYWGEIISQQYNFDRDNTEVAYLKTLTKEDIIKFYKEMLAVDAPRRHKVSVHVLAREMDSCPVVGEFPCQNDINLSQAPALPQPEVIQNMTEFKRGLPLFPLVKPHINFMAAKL

[5] = molecular target: Peroxisome proliferator-activated receptor gamma/Nuclear receptor coactivator 1 (Homo sapiens, UniProt P37231); format: functional;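 further: agonist potency as compounds enhance coactivator SRC-1 recruitment to PPARgamma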
[6] = molecular target: Peroxisome proliferator-activated receptor gamma/Nuclear receptor coactivator 2 (Homo sapiens, UniProt P37231); format: functional;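 further: agonist potency for raising coactivator recruitment to the receptor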
[7] = molecular target: Peroxisome proliferator-activated receptor gamma/Nuclear receptor coactivator 3 (Homo sapiens, UniProt P37231); format: functional;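 further: agonist potency for raising coactivator recruitment to the receptor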
Sequence of Peroxisome proliferator-activated receptor gamma/Nuclear receptor coactivator 3 (P37231 whole entry): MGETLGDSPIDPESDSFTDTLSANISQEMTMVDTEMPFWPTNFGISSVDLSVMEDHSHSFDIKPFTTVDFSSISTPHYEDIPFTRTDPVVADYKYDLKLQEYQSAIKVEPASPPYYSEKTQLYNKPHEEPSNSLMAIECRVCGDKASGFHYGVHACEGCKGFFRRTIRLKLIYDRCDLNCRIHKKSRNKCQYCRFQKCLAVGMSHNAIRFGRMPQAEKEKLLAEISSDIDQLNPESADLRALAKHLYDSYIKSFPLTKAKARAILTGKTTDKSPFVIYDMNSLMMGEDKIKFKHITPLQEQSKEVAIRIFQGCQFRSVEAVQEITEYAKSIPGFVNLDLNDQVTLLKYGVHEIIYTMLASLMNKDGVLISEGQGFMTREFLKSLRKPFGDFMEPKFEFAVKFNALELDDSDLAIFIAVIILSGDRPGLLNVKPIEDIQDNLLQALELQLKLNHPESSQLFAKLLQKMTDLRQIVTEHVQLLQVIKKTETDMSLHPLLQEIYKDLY
Sequence of Peroxisome proliferator-activated receptor gamma/Nuclear receptor coactivator 3 (Q9Y6Q9 whole entry, further chain): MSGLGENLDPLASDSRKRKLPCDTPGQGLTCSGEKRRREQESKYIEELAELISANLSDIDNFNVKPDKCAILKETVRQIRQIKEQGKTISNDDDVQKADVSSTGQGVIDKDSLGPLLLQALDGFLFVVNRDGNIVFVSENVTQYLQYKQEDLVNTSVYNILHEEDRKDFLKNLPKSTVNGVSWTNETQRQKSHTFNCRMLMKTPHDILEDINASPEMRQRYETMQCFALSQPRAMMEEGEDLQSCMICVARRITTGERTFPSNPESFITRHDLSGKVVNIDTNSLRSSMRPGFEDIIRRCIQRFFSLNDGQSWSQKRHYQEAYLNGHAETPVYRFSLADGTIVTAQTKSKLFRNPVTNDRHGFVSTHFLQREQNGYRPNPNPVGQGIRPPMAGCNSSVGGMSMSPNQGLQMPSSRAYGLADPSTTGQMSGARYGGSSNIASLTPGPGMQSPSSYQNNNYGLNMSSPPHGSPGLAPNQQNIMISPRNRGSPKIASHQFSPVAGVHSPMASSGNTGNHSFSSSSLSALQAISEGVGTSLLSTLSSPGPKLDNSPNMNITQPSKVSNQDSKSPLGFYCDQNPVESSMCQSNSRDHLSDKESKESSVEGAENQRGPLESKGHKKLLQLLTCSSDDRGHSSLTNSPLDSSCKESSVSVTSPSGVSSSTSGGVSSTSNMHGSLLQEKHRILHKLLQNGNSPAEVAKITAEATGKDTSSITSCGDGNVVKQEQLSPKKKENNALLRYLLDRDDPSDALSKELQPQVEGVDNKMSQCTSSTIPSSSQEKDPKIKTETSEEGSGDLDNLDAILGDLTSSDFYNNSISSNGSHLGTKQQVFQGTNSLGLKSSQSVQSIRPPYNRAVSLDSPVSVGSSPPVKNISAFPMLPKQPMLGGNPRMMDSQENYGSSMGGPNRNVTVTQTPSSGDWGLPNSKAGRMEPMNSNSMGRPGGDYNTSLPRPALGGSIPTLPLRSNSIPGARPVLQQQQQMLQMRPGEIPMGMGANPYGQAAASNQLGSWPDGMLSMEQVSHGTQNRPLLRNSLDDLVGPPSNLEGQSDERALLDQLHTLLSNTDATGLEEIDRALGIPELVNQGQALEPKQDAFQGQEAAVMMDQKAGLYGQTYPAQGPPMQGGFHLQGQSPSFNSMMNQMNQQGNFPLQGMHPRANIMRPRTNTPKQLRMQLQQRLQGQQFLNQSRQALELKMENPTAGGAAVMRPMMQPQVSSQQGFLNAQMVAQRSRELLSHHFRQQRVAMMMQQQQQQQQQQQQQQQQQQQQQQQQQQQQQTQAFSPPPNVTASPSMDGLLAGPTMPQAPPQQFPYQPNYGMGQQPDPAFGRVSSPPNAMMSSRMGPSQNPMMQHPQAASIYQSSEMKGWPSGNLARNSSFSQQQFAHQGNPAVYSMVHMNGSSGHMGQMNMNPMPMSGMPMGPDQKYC

[8] = molecular target: T2, Mannose-6-phosphate isomerase (Homo sapiens, UniProt P34949); experiment: inhibitors of human PMI, primary screen, biochemical, fluorescence intensity, coupled assay (AID 1209)
T2 sequence (P34949 whole entry): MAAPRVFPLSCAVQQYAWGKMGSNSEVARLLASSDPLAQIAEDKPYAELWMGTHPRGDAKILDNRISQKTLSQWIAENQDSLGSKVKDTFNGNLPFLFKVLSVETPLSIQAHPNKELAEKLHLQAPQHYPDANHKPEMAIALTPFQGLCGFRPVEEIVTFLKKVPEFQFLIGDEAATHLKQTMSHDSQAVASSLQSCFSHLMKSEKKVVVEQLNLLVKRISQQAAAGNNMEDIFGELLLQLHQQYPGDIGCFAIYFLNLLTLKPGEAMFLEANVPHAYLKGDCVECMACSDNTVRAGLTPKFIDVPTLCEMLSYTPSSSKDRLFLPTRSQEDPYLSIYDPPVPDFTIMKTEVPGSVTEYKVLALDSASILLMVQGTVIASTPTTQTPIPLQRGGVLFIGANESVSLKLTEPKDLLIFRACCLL

## Cc1ccc(S(=O)(=O)N2CC3CCCC2C3)cc1 (stereo not given)
[1]
  EC50: 3.78 µM (active)
[2]
  EC50: > 29.9 µM (not active)

## CC(=O)Nc1cc(/N=C/c2ccc(O)cc2O)c(Cl)cc1Cl
[3]
  IC50: 16 µM (not active)
[4]
  IC50: > 6.22 µM (active)

## COc1cc(C)ccc1S(=O)(=O)N1CCCCCC1
[1]
  EC50: 2.84 µM (active)
[2]
  EC50: > 29.9 µM (not active)

## COc1cnn(-c2ccccc2)c(=O)c1N(C)C
[5]
  EC50: > 79.4 µM (not active)
[6]
  EC50: > 79.4 µM (not active)
[7]
  EC50: > 79.4 µM (not active)

## CCOc1ccc2c(c1)C(C)=CC(C)(C)N2C(=O)Nc1ccccc1
[8]
  IC50: > 50 µM (not active)
